According to patent publication US20080242681A1, “N-4-(6-(Hetero)Aryl-Pyrimidin-4-Ylaminophenyl)-Benzenesulfonamides as Kinase Inhibitors” (Altana Pharma AG, priority 2004, published 2008):
Counter-ions that a name gives are not always drawn. Each block holds one compound with its values, some of them ahead of it.

How the values were obtained:
Format in all cases: biochemical
PKCι = molecular target: T1, PKCι (Homo sapiens, UniProt P41743); assay: Protein Kinase C ι assay (SPA); settings: human recombinant PKCι from Sf21 insect cells, absence of PMA and phosphatidylserine, read-out: IC50, inhibition of PKC ι
T1 construct: made in house; host or cells: Sf21 insect cells
T1 sequence (P41743 1-596): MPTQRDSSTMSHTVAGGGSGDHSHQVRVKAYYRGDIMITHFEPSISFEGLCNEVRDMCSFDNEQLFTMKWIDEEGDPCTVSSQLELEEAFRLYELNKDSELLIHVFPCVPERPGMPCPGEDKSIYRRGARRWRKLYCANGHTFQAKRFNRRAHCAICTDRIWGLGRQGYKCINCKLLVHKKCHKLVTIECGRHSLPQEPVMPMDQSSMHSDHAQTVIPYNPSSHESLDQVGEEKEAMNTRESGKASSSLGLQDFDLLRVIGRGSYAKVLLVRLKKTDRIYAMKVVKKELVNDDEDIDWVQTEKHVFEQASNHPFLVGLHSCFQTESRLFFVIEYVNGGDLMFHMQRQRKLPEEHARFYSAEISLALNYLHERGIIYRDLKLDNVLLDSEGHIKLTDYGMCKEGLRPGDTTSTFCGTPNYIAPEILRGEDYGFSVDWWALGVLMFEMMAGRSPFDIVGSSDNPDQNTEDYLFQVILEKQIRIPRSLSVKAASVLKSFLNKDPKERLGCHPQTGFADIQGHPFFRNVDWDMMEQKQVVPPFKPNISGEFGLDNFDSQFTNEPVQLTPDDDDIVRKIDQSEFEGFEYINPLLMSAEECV
Method: (§1) The compounds of formula 1 are tested for their activity on different protein kinases and PKC isoforms using a scintillation proximity assay (SPA, Amersham International plc). ^33P-labeled peptides are captured onto streptavidin coated yttrium silicate SPA beads. β-particles, emitted from the captured ^33P-labeled substrate in close proximity to the bead are able to excite the scintillant, resulting in the generation of quantifiable light. The assay is performed in a 96-well polystyrene microtiterplate (1450-514, Isoplates, Wallac, Turku, Finland). The reaction mixture (50 μl) contains 10 μl of the test compound together with 10 μl of the relevant kinase, diluted in the relevant dilution buffer, 5 μl of 10 μM phorbol myristate acetate (PMA) in H2O, 5 μl of 1.6 mM phosphatidylserine (Sigma-Aldrich Chemie GmbH, Stein-heim, Germany) in 20 mM Tris/HCL buffer pH 7.4, 5 μl of 0.3% BSA in H2O, 5 μl of 30 μM relevant substrate and 10 μl of 5 μM ATP and 0.1 μCi of ^33P-ATP (Amersham, Freiburg, Germany) in 200 mM Tris/HCL pH 7.5 and 200 mM MgCl2. Incubation is performed for 40 min at room temperature (RT) without shaking. Reaction is stopped by adding 150 μl of cold stop solution containing 10 mM ATP, 5 mM EGTA pH 7.5, 0.1% Triton X-100 and 0.2 mg streptavidin coated yttrium silicate SPA beads (Amersham, RPNQ 0012). The sealed plate is incubated for 60 min at RT. Thereafter the MTP is counted in a Microbeta Jet (Wallac). IC50 measurement is performed on a routine basis by incubation a serial dilution of inhibitor at concentrations ranging between 0.01 and 100 μM according to the method described above. Background values are the signals of the reaction mixture without addition of the relevant kinase and are subtracted from all values. 100% values are the signals of the reaction mixture without addition of inhibitors.
(§2) Dependent on the efficacy of the inhibitors In the various test systems, corresponding IC50 values are calculated from concentration-inhibition curves by nonlinear regression analysis using the program GraphPad Prism (GraphPad Software Inc., San Diego, Calif.). […]

PKCζ = molecular target: T2, PKCζ (Homo sapiens, UniProt Q05513); assay: Protein Kinase C ζ assay (SPA); settings: human recombinant PKCζ, absence of PMA and phosphatidylserine, read-out: IC50, inhibition of PKC ζ
T2 construct: purchased Panvera
T2 sequence (Q05513 1-592): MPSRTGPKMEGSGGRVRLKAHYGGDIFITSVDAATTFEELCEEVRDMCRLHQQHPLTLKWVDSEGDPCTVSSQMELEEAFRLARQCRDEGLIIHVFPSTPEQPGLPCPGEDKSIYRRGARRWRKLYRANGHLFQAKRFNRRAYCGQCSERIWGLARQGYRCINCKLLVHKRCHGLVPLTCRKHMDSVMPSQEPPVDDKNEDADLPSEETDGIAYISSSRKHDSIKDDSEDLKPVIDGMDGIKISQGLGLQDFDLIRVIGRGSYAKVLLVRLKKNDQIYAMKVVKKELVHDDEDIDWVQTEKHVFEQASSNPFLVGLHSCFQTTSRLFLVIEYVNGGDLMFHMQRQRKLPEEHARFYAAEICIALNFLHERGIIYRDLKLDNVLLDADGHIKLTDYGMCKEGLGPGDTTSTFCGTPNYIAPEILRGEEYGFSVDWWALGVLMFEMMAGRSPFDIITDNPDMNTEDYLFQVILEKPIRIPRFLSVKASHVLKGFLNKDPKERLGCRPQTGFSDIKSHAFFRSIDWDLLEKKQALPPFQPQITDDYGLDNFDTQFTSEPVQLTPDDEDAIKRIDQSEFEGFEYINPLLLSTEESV
Method: (§3) The compounds of formula 1 are tested for their activity on different protein kinases and PKC isoforms using a scintillation proximity assay (SPA, Amersham International plc). ^33P-labeled peptides are captured onto streptavidin coated yttrium silicate SPA beads. β-particles, emitted from the captured ^33P-labeled substrate in close proximity to the bead are able to excite the scintillant, resulting in the generation of quantifiable light. The assay is performed in a 96-well polystyrene microtiterplate (1450-514, Isoplates, Wallac, Turku, Finland). The reaction mixture (50 μl) contains 10 μl of the test compound together with 10 μl of the relevant kinase, diluted in the relevant dilution buffer, 5 μl of 10 μM phorbol myristate acetate (PMA) in H2O, 5 μl of 1.6 mM phosphatidylserine (Sigma-Aldrich Chemie GmbH, Stein-heim, Germany) in 20 mM Tris/HCL buffer pH 7.4, 5 μl of 0.3% BSA in H2O, 5 μl of 30 μM relevant substrate and 10 μl of 5 μM ATP and 0.1 μCi of ^33P-ATP (Amersham, Freiburg, Germany) in 200 mM Tris/HCL pH 7.5 and 200 mM MgCl2. […] Thereafter the MTP is counted in a Microbeta Jet (Wallac). […]
as §2

Lck = molecular target: T3, Lck (Homo sapiens, UniProt P06239); assay: Lck (p56Lck) assay (SPA); settings: human recombinant Lck, read-out: IC50, inhibition of Lck
T3 construct: purchased Upstate (Dundee, UK)
Method: as §3
Human recombinant Lck was obtained from Upstate (Dundee, UK) and is used in a scintillation proximity assay described in Section A.1. […] Thereafter the MTP is counted in a Microbeta Jet (Wallac). […] IC50 values are calculated from the graph by sigmoidal curve fitting. […]

PKA = molecular target: T4, PKA (Homo sapiens, UniProt P17612); assay: Protein Kinase A assay (SPA); settings: human recombinant PKA, read-out: IC50, inhibition of PKA
T4 construct: purchased Panvera
Method: as §1
Human recombinant PKA was obtained from Panvera and is used in a scintillation proximity assay described in Section A.1. […] Thereafter the MTP is counted in a Microbeta Jet (Wallac). […] IC50 values are calculated from the graph by sigmoidal curve fitting.

PKCε = molecular target: T5, PKCε (Homo sapiens, UniProt Q02156); assay: Protein Kinase C ε assay (SPA); settings: human recombinant PKCε, PKCη pseudosubstrate, read-out: IC50, inhibition of PKC ε
T5 construct: purchased Panvera
T5 sequence (Q02156 1-737): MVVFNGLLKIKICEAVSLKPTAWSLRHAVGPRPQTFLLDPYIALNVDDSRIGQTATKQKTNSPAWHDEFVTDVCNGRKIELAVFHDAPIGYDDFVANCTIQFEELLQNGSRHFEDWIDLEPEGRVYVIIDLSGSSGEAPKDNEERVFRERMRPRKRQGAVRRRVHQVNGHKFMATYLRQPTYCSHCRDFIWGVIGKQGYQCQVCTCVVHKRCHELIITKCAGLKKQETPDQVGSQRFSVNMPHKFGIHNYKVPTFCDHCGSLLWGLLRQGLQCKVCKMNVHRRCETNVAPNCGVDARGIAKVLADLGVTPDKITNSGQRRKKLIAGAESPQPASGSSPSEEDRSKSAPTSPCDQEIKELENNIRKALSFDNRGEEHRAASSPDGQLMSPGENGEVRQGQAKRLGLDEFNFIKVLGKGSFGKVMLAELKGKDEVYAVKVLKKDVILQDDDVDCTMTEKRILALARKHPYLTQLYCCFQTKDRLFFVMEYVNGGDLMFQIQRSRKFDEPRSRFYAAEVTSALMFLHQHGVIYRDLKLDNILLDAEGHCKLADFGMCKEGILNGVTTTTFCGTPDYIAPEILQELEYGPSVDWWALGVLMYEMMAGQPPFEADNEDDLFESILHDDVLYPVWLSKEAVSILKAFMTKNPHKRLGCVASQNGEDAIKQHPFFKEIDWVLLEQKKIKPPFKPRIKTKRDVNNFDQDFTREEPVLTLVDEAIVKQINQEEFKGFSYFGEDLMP
Method: as §1
Dependent on the efficacy of the inhibitors In the various test systems, corresponding IC50 values are calculated from concentration-inhibition curves by nonlinear regression analysis using the program GraphPad Prism (GraphPad Software Inc., San Diego, Calif.).
Human recombinant PKCε was obtained from Panvera and is used under the assay conditions as described above (Section A.1). The enzyme is diluted in PKC dilution buffer containing 1 mM Hepes pH 7.4, 0.5 mM DTT and 0.001% Triton X-100. The kinase reaction is performed with the biotinylated PKCη pseudosubstrate solved in H2O.

T3 sequence (P06239 whole entry): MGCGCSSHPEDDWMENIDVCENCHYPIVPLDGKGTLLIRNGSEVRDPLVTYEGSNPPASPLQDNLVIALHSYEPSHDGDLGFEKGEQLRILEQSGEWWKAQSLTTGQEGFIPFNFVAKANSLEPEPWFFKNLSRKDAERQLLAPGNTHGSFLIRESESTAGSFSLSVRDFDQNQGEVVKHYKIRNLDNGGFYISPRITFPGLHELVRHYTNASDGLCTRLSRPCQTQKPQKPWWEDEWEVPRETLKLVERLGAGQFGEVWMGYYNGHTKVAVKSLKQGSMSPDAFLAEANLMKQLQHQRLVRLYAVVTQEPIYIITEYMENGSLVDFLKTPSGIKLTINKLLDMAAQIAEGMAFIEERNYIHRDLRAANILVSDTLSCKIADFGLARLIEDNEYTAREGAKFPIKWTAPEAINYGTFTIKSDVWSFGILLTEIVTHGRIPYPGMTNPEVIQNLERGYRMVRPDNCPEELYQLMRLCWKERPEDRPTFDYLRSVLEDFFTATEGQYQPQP

SMILES: CCN(CC)CCCn1cc(-c2cc(Nc3ccc(NS(=O)(=O)c4ccc(F)cc4F)cc3)ncn2)c2ccccc21 [Example 175, N-(4-{6-[1-(3-Diethylamino-propyl)-1H-indol-3-yl]-pyrimidin-4-ylamino}-phenyl)-2,4-difluoro-benzenesulfonamide formic acid salt]
IC50 (PKCζ): 15 to 25 µM

SMILES: CN1CCN(CCCn2ccc3cc(-c4cc(Nc5ccc(NS(=O)(=O)c6ccc(F)c(Cl)c6)cc5)ncn4)ccc32)CC1 [Example 162, 3-Chloro-4-fluoro-N-[4-(6-{1-[3-(4-methyl-piperazin-1-yl)-propyl]-1H-indol-5-yl}-pyrimidin-4-ylamino)-phenyl]-benzenesulfonamide formic acid salt]
IC50 (PKCι): 7 to 34 µM

SMILES: O=S(=O)(Nc1ccc(Nc2cc(-c3ccc4c(ccn4CCCN4CCCC4)c3)ncn2)cc1)c1c(F)cccc1F [Example 143, 2,6-Difluoro-N-(4-{6-[1-(3-pyrrolidin-1-yl-propyl)-1H-indol-5-yl]-pyrimidin-4-ylamino}-phenyl)-benzenesulfonamide formic acid salt]
IC50 (PKCζ): 15 to 25 µM

SMILES: O=S(=O)(Nc1ccc(Nc2cc(-c3ccc4[nH]ccc4c3)ncn2)cc1)c1cccc(F)c1 [Example 121, 3-Fluoro-N-{4-[6-(1H-indol-5-yl)-pyrimidin-4-ylamino]-phenyl}-benzenesulfonamide]
IC50 (PKA): 3 to 16 µM

Next, values leading:

IC50 (PKCι): 7 to 34 µM
SMILES: COc1ccc(S(=O)(=O)Nc2ccc(Nc3cc(-c4ccc5c(ccn5CCCN5CCCC5)c4)ncn3)cc2)cc1 [Example 145, 4-Methoxy-N-(4-{6-[1-(3-pyrrolidin-1-yl-propyl)-1H-indol-5-yl]-pyrimidin-4-ylamino}-phenyl)-benzenesulfonamide formic acid salt]

IC50 (Lck): < 3 µM
SMILES: COc1ccc(S(=O)(=O)Nc2ccc(Nc3cc(-c4ccc5c(ccn5CCCN(C)C)c4)ncn3)cc2)cc1 [Example 131, N-(4-[6-[1-(3-Dimethylamino-propyl)-1H-indol-5-yl]pyrimidin-4-ylamino]phenyl)-4-methoxy-benzenesulfonamide]

IC50 (PKA): 3 to 16 µM
SMILES: O=S(=O)(Nc1ccc(Nc2cc(-c3cccc4ccccc34)ncn2)cc1)c1ccc(Cl)c(Cl)c1 [Example 10, 3,4-Dichloro-N-[4-(6-naphthalen-1-yl-pyrimidin-4-ylamino)-phenyl]-benzenesulfonamide]

IC50 (PKCε): 4 to 21 µM
IC50 (PKA): 3 to 16 µM
SMILES: Cc1csc(-c2cc(Nc3ccc(NS(=O)(=O)c4c(F)cccc4F)cc3)ncn2)c1 [Example 117, 2,6-Difluoro-N-{4-[6-(4-methyl-thiophen-2-yl)-pyrimidin-4-ylamino]-phenyl}-benzenesulfonamide]
